From patent publication US20190388389A1, “METHODS AND COMPOSITIONS OF CARNOSOL FOR INHIBITING UVB-INDUCED SKIN DAMAGE” (Ohio University, priority 2017, published 2019)

Columns and labels:
NO* in HaCaT cells = assay: Nitric oxide measurement (DAF-2DA) after UVB radiation; type: cell-based, Human; settings: 20 μM carnosol
Method: FIGS. 4A-4B: Quantitative analysis of NO* and ONOO^− after UVB radiation. HaCaT cells were irradiated with UVB radiation in the presence or absence of carnosol (20 μM). At indicated time point, cells were stained with DAF-2DA or DAR. The fluorescent intensity was then measured and normalized to cell viability. (FIG. 4A) Quantitative measurement of NO*. (FIG. 4B) Quantitative measurement of ONOO^−. *p<0.05 versus corresponded group with carnosol treatment upon UVB radiation.
The level of NO* was measured by 5 mM diaminofluorescein diacetate (DAF-2DA) (ex490/em520 nm) and ONOO^− was measured by 5 mM diaminorhodamine (DAR) (ex488/em515 nm). 1×10^5 HaCaT cells were seeded in 96-well plate one day before measurement. […] The cells were then incubated in dark for 2 h at room temperature and the fluorescence was measured by luminometer (Molecular devices Spectra Max M2). The reading was then normalized by AlamarBlue cell viability assay (Life technology). 10% of the Alamar Blue reagent was added to cells with medium followed by 2 h incubation at 37° C. in dark then read the fluorescent at ex570/em590 nm using luminometer (Molecular devices Spectra Max M2).
Both NO* and ONOO^− are induced by UVB radiation. By using DAF-2DA (5 mM) and DAR (5 mM), the effect of carnosol on intracellular NO* and ONOO^− level, in a time dependent manner upon UVB radiation, was also measured.

p-Chk = assay: Immunostaining of p-Chk in HaCaT cells upon UVB radiation; type: cell-based, Human; settings: immunofluorescence
Description: FIG. 5C: Immunostaining of p-Chk in HaCaT cells upon UVB radiation with or without carnosol treatment. P-Chk was stained with green fluorescent, while nucleus was stained by DAPI. Scale indicates 20 μm.
Both human keratinocyte (HaCaT) and mouse embryonic fibroblast (MEF) cells were used, and the protein levels of γH2AX and phosphor-Chk were used as DNA damage marker. […] Similar results are observed in MEF cells as both the phosphorylation level of H2AX and Chk reduced at early stage post UVB radiation (FIG. 5B). […] To further show the protection effect of carnosol on UVB-irradiated cell, a comet assay was performed. […] Thus, carnosol ast least partially protect the DNA damage from UVB radiation.

[1] = tested on: cyclobutane pyrimidine dimer (CPD) formation; assay: Quantitative measurement of CPD formation after UVB; type: cell-based; settings: with vs without carnosol
Description: FIG. 5E: Quantitative measurement of cyclobutane pyrimidine dimer (CPD) formation, with and without UVB, and with and without carnosol. *p<0.05 versus corresponded control group, **p<0.05 versus corresponded UV group.
There are two major forms of DNA damage caused by UVB radiation: one is the direct DNA damage which forms CPD; the other is the oxidation-caused DNA damage, which causes the formation of 6-4 PP. In order to identify which form of DNA damage is protected by carnosol, a quantitative assay to identify the production of both DNA damage products after UVB radiation with or without carnosol treatment was performed.

IκB = assay: Western blot for IκB protein level, MEF cells; type: cell-based, mouse; settings: 20 μM carnosol, 6 h post UVB
Method: FIGS. 7A-7F: Carnosol inhibited UVB-induced NF-κB activation. Cells were exposed to UVB radiation in the presence or absence of carnosol. Cells were lysed at indicated time point and protein levels were measured by western blot analysis. (FIG. 7A) Western blot for IκB protein level in HaCaT cells at 2, 4 h post UVB radiation at 1, 10 or 20 μM carnosol treatment. (FIG. 7B) Western blot analysis for IκB protein level in HaCaT cells at 6 h post UVB radiation in the presence or absence of carnosol. (FIG. 7C) Western blot analysis for IκB protein level in MEF cells at 6 h post UVB radiation in the presence or absence of carnosol. (FIG. 7D) Western blot for 5276 site phosphorylation of NF-κB in HaCaT cells at 6 h post UVB with indicated carnosol concentration. (FIG. 7E) EMSA assay for HaCaT cells at 2, 4, 6 h post UVB radiation in the presence or absence of carnosol (20 μM). (FIG. 7F) Statistical analysis of the EMSA assay using two to three sets of independent experiments. *p<0.05 versus control group, **p<0.05 versus UV group at indicated time point.
Cells were lysed with Nonidet P-40 (NP-40) lysis buffer (2% NP-40, 80 mM NaCl, 100 mM Tris-HCl pH 8.0, 0.1% SDS) with proteinase inhibitor mixture (Complete™, Roche Molecular Biochemicals) at indicated time point. […] Protein concentration was measured by Protein DC Assay kit (Bio-Rad Laboratories). […]

normal skin cells = assay: Cell viability with carnosol or its UVB-decomposed molecules (FIG. 12); type: cell-based; settings: within 12 h after treatment
Method: FIG. 12. The effect of carnosol or its decomposed molecules on cell viability. Cell viability assay of carnosol and its UVB-decomposed molecules on normal skin cells in a time dependent manner (6, 12, and 24 h after UVB radiation).
UVB was generated from a Bench XX-Series UV Lamp (UVP Inc.) equipped with two 15-watt UVB tubes (UVP Inc.). The intensity of UVB was calibrated by a UVP model UVX digital radiometer (UVP Inc.) after the lamps warmed up for 5 min. For irradiating cells, the dose rate for 8 mJ/cm^2 or 50 mJ/cm^2 of UVB radiation was 0.8 or 3.8 mW/s respectively. Medium was removed before exposing the cells to UVB. After UVB radiation, fresh medium was added to the culture plates with or without drugs, and the cells were continue incubating at 37° C. with 5% CO2 until further analysis. Carnosol was disovled in DMSO and was irradiated with 50 mJ/cm^2 of UVB radiation at a dose rate of 3.8 mW/s before subjecting to cells or structure analysis using Mass Spectrum.

With CC(C)c1cc2c(c(O)c1O)[C@@]13CCCC(C)(C)[C@@H]1C[C@@H]2OC3=O [carnosol] the “reduction of NO* level” value (NO* in HaCaT cells; average from 2 h to 24 h post UVB) was “about 40%”, the “NO* level of cells without radiation” value (NO* in HaCaT cells; no UVB) was “little effect” and the “UVB-induced expression level of p-Chk in nucleus” value (p-Chk) was “significantly reduce”. For the same compound, the “formation of CPD after UVB radiation” value [1] was “almost by half”, the IκB protein level (IκB) was “partial recovery of IκB level” and the “protection of cell damage from UVB radiation (viability)” value (normal skin cells) was “can protect cell damage from UVB radiation in short term”.
